Some test systems named below: CCRF-CEM; NCI-H522; NCI-H226; CAKI-1; 786-0; U-251; SK-OV-3; M14; RXF 393; SF-539; UACC-257; SNB-75; IGROV-1; SNB-19; SF-295; OVCAR-3; SW-620; OVCAR-5.
Common to all, as to experiment: NCI tumour cell line growth inhibition, 48 h

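Values below derive from 48-hour exposures of cells grown in 96-well plates, with endpoints linearly interpolated between the two concentrations bracketing the appropriate inhibition level. GI50: concentration for 50% inhibition of growth.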 Activity calls are given as the source filed them. Cut-off read from the data, not from the text of the source: active = GI50 up to about 1.1 µM and inactive = higher.

The source of these data is ChEMBL document CHEMBL1201862, “PubChem BioAssay data set” (2004).

In the case of `COc1cc2c(c(OC)c1OC)-c1ccc(SC)c(=O)cc1C(CC(=O)Oc1cccc(C#N)c1)C2` (stereo not drawn), the GI50 in the test with CCRF-CEM is 0.337 µM (active); in the test with NCI-H522 it was 0.187 µM (active); in the test with NCI-H226, 0.222 µM (active); in the test on CAKI-1 it was 3.42 µM (inactive); in the test on 786-0 it was 0.475 µM (active); in the test on U-251, 0.354 µM (active). The GI50 was 0.046 µM (active) in the test with SK-OV-3; 0.298 µM (active) in the test on M14; 0.167 µM (active) in the test with RXF 393; 0.221 µM (active) with SF-539; 0.516 µM (active) with UACC-257; 0.291 µM (active) with SNB-75. In addition, the GI50 in the test on IGROV-1 was 2.06 µM (inactive); with SNB-19, 0.678 µM (active); in the test with SF-295, 0.266 µM (active); with OVCAR-3 it was 0.232 µM (active); in the test on SW-620, 0.327 µM (active).

Turning to `CCCCN(CCCC)/C(=N\C#N)NCc1ccccc1`, the GI50 with CCRF-CEM is 12.1 µM (inactive); with NCI-H522, 3.95 µM (inactive); in the test with NCI-H226, 24.3 µM (inactive); with CAKI-1, 22.5 µM (inactive); with 786-0 it was 19 µM (inactive); in the test with U-251, 15.3 µM (inactive). For the same compound, the GI50 is 20.7 µM (inactive) in the test on SK-OV-3; 22.3 µM (inactive) in the test with M14; 22.5 µM (inactive) with RXF 393; 23.8 µM (inactive) with SF-539; 27.4 µM (inactive) in the test on UACC-257; 28.1 µM (inactive) with SNB-75. For the same compound, the GI50 in the test on IGROV-1 is 24.8 µM (inactive); in the test on SNB-19 it was 19.6 µM (inactive); in the test with SF-295 it was 14.3 µM (inactive); in the test with OVCAR-3, 13.6 µM (inactive); in the test with OVCAR-5, 26.4 µM (inactive); in the test on SW-620, 15.8 µM (inactive).

Regarding `COc1cc(/C=C2\[C@H]3c4c(c(OC)c(C)c(OC)c4OC)C[C@@H](C(=O)N2Cc2ccccc2)N3C(=O)OCC(C)C)c(OC)c(C)c1OC`, the GI50 in the test with CCRF-CEM is 33.6 µM (inactive); in the test with NCI-H522, 19.4 µM (inactive); in the test on NCI-H226, 1.16 µM (inactive); in the test on CAKI-1 it was 23.6 µM (inactive); with 786-0, > 100 µM (inactive); in the test on U-251, > 85.5 µM (inactive). In addition, the GI50 in the test with SK-OV-3 was > 100 µM (inactive); with M14, > 100 µM (inactive); in the test on RXF 393, > 100 µM (inactive); in the test with SF-539, > 100 µM (inactive); in the test with UACC-257, 16.6 µM (inactive); in the test on SNB-75, > 83.2 µM (inactive). For the same compound, the GI50 is > 77.8 µM (inactive) in the test on IGROV-1; > 100 µM (inactive) in the test with SNB-19; > 100 µM (inactive) with SF-295; > 41.4 µM (inactive) with OVCAR-3; > 27.5 µM (inactive) in the test on OVCAR-5; > 31.6 µM (inactive) with SW-620.

For the compound `CC(=O)Nc1ccc(C(=O)NN2C(=O)C(Cl)C2c2ccc(O)cc2)cc1` (stereo not drawn), the GI50 in the test on CCRF-CEM was > 100 µM (inactive); in the test on NCI-H522 it was > 100 µM (inactive); in the test with NCI-H226, > 100 µM (inactive); with CAKI-1, > 100 µM (inactive); in the test on 786-0, 72.4 µM (inactive); in the test on U-251 it was > 100 µM (inactive). The GI50 is > 100 µM (inactive) in the test on SK-OV-3; > 100 µM (inactive) in the test with M14; 61.7 µM (inactive) in the test with RXF 393; > 100 µM (inactive) with SF-539; > 100 µM (inactive) with UACC-257; > 100 µM (inactive) in the test with SNB-75. The GI50 with IGROV-1, with SNB-19, in the test on SF-295, with OVCAR-3, with OVCAR-5 and in the test on SW-620 was > 100 µM (inactive) throughout.

For the compound `OCCCCOC(c1ccccc1)(c1ccccc1)c1ccccc1`, the GI50 with CCRF-CEM, with NCI-H522, in the test with NCI-H226, in the test on CAKI-1, in the test with 786-0 and with U-251 was > 100 µM (inactive) throughout. The GI50 in the test on SK-OV-3 was > 100 µM (inactive); with M14, > 100 µM (inactive); with RXF 393, > 100 µM (inactive); with SF-539, > 100 µM (inactive); with UACC-257 it was > 100 µM (inactive); in the test on SNB-75, 67.5 µM (inactive). Further, the GI50 in the test on IGROV-1, with SF-295, with OVCAR-3, with OVCAR-5 and in the test on SW-620 was > 100 µM (inactive) throughout.

As to `CC(=O)NC(CCCCN)C(=O)NCc1ccccc1` (stereo not drawn), the GI50 in the test on CCRF-CEM, in the test with NCI-H522, with NCI-H226, with CAKI-1, in the test with 786-0 and with U-251 was > 100 µM (inactive) in each case. Moreover, the GI50 with SK-OV-3 was > 100 µM (inactive); in the test on M14 it was > 100 µM (inactive); in the test on RXF 393, > 100 µM (inactive); in the test on SF-539, > 100 µM (inactive); in the test on UACC-257, > 100 µM (inactive); with SNB-75 it was 88.1 µM (inactive). For the same compound, the GI50 in the test on IGROV-1, in the test with SNB-19, in the test with SF-295, with OVCAR-3, with OVCAR-5 and in the test with SW-620 was > 100 µM (inactive) throughout.

For `C=CCC(C)(C(=O)NCCC)C(=O)c1ccccc1O` (stereo not drawn), the GI50 with CCRF-CEM, in the test on NCI-H522, in the test on NCI-H226, in the test with CAKI-1, with 786-0 and with U-251 was > 100 µM (inactive) in each case. The GI50 in the test on SK-OV-3, in the test with M14, in the test on RXF 393, in the test on SF-539, with UACC-257 and in the test with SNB-75 was > 100 µM (inactive) throughout. Further, the GI50 in the test with IGROV-1, with SNB-19, in the test with OVCAR-3 and in the test with SW-620 was > 100 µM (inactive) in each case.

As to `COc1ccc2nc(NC(=O)C(=O)C(C(=O)c3ccccc3-c3ccccc3)C3OC(=O)c4ccccc43)sc2c1` (stereo not drawn), the GI50 in the test on CCRF-CEM is 15.5 µM (inactive); in the test with NCI-H522 it was 9.89 µM (inactive); with NCI-H226, 5.27 µM (inactive); in the test on 786-0, 15.6 µM (inactive); in the test on U-251 it was 12.8 µM (inactive); in the test on SK-OV-3 it was 27.4 µM (inactive). Besides, the GI50 in the test with M14 was 19 µM (inactive); in the test with RXF 393 it was 10.2 µM (inactive); with SF-539, 15.2 µM (inactive); in the test on UACC-257, 22.4 µM (inactive); in the test with SNB-75, 16.1 µM (inactive); with IGROV-1 it was 25.8 µM (inactive). Besides, the GI50 is 27.2 µM (inactive) with SF-295, 18.5 µM (inactive) in the test with OVCAR-3, 18.7 µM (inactive) in the test with OVCAR-5 and 23.8 µM (inactive) in the test on SW-620.
